Test results published in PubChem BioAssay AID1259407 (Chemical Carcinogenesis Research Information System (CCRIS), 2018).
Active and inactive are the calls of the source. The rule behind the calls is not given here.

Test system: CCRIS mutagenicity, Ames/micronucleus/aberration tests
Experiment: CCRIS mutagenicity studies
[1] = Test System: AMES SALMONELLA TYPHIMURIUM, Strain/Indicator: TA98, Metabolic Activation: NONE, Method: PREINCUBATION
[2] = Test System: AMES SALMONELLA TYPHIMURIUM, Strain/Indicator: TA100, Metabolic Activation: NONE, Method: PREINCUBATION
[3] = Test System: AMES SALMONELLA TYPHIMURIUM, Strain/Indicator: TA98, Metabolic Activation: NONE, Method: STANDARD PLATE
[4] = Test System: AMES SALMONELLA TYPHIMURIUM, Strain/Indicator: TA98, Metabolic Activation: RAT, LIVER, S-9, AROCLOR 1254, Method: STANDARD PLATE
[5] = Test System: AMES SALMONELLA TYPHIMURIUM, Strain/Indicator: TA100, Metabolic Activation: NONE, Method: STANDARD PLATE
[6] = Test System: AMES SALMONELLA TYPHIMURIUM, Strain/Indicator: TA100, Metabolic Activation: RAT, LIVER, S-9, AROCLOR 1254, Method: STANDARD PLATE

CCCCCc1cc(O)cc(O)c1
mutagenic call (Test System: AMES SALMONELLA TYPHIMURIUM, Strain/Indicator: TA97, Metabolic Activation: HAMSTER, LIVER, S-9, AROCLOR 1254 (10 OR 30%), Method: PREINCUBATION): inactive; negative | mutagenic call (Test System: AMES SALMONELLA TYPHIMURIUM, Strain/Indicator: TA97, Metabolic Activation: NONE, Method: PREINCUBATION): inactive; negative | mutagenic call (Test System: AMES SALMONELLA TYPHIMURIUM, Strain/Indicator: TA97, Metabolic Activation: RAT, LIVER, S-9, AROCLOR 1254 (10 OR 30%), Method: PREINCUBATION): inactive; negative | mutagenic call (Test System: AMES SALMONELLA TYPHIMURIUM, Strain/Indicator: TA98, Metabolic Activation: HAMSTER, LIVER, S-9, AROCLOR 1254 (10%), Method: PREINCUBATION): inactive; negative | mutagenic call (Test System: AMES SALMONELLA TYPHIMURIUM, Strain/Indicator: TA98, Metabolic Activation: HAMSTER, LIVER, S-9, AROCLOR 1254 (30%), Method: PREINCUBATION): inactive; negative | mutagenic call [1]: inactive; negative | mutagenic call (Test System: AMES SALMONELLA TYPHIMURIUM, Strain/Indicator: TA98, Metabolic Activation: RAT, LIVER, S-9, AROCLOR 1254 (10%), Method: PREINCUBATION): inactive; negative | mutagenic call (Test System: AMES SALMONELLA TYPHIMURIUM, Strain/Indicator: TA98, Metabolic Activation: RAT, LIVER, S-9, AROCLOR 1254 (30%), Method: PREINCUBATION): inactive; negative | mutagenic call (Test System: AMES SALMONELLA TYPHIMURIUM, Strain/Indicator: TA100, Metabolic Activation: HAMSTER, LIVER, S-9, AROCLOR 1254 (10%), Method: PREINCUBATION): inactive; negative | mutagenic call (Test System: AMES SALMONELLA TYPHIMURIUM, Strain/Indicator: TA100, Metabolic Activation: HAMSTER, LIVER, S-9, AROCLOR 1254 (30%), Method: PREINCUBATION): inactive; negative | mutagenic call [2]: inactive; negative | mutagenic call (Test System: AMES SALMONELLA TYPHIMURIUM, Strain/Indicator: TA100, Metabolic Activation: RAT, LIVER, S-9, AROCLOR 1254 (10%), Method: PREINCUBATION): inactive; negative | mutagenic call (Test System: AMES SALMONELLA TYPHIMURIUM, Strain/Indicator: TA100, Metabolic Activation: RAT, LIVER, S-9, AROCLOR 1254 (30%), Method: PREINCUBATION): inactive; negative | mutagenic call (Test System: AMES SALMONELLA TYPHIMURIUM, Strain/Indicator: TA1535, Metabolic Activation: HAMSTER, LIVER, S-9, AROCLOR 1254 (10 OR 30%), Method: PREINCUBATION): inactive; negative | mutagenic call (Test System: AMES SALMONELLA TYPHIMURIUM, Strain/Indicator: TA1535, Metabolic Activation: NONE, Method: PREINCUBATION): inactive; negative | mutagenic call (Test System: AMES SALMONELLA TYPHIMURIUM, Strain/Indicator: TA1535, Metabolic Activation: RAT, LIVER, S-9, AROCLOR 1254 (10 OR 30%), Method: PREINCUBATION): inactive; negative

Nc1ccnc2ccccc12
mutagenic call [1]: inactive; negative | mutagenic call (Test System: AMES SALMONELLA TYPHIMURIUM, Strain/Indicator: TA98, Metabolic Activation: RAT, LIVER, S-9, KANECHLOR 500 OR PHENOBARBITAL AND BETA-NAPHTHOFLAVONE, Method: PREINCUBATION): inactive; negative | mutagenic call [2]: inactive; negative | mutagenic call (Test System: AMES SALMONELLA TYPHIMURIUM, Strain/Indicator: TA100, Metabolic Activation: RAT, LIVER, S-9, KANECHLOR 500 OR PHENOBARBITAL AND BETA-NAPHTHOFLAVONE, Method: PREINCUBATION): inactive; negative

CC(C)=CCC[C@](C)(O)[C@@H]1CC=C(C)CC1
mutagenic call (End Point: AMES SALMONELLA TYPHIMURIUM, Test System: TA97A, Metabolic Activation: NONE, Method: STANDARD PLATE): inactive; negative | mutagenic call (End Point: AMES SALMONELLA TYPHIMURIUM, Test System: TA97A, Metabolic Activation: RAT, LIVER, S-9, AROCLOR 1254, Method: STANDARD PLATE): inactive; negative | mutagenic call (End Point: AMES SALMONELLA TYPHIMURIUM, Test System: TA98, Metabolic Activation: NONE, Method: STANDARD PLATE): inactive; negative | mutagenic call (End Point: AMES SALMONELLA TYPHIMURIUM, Test System: TA98, Metabolic Activation: RAT, LIVER, S-9, AROCLOR 1254, Method: STANDARD PLATE): inactive; negative | mutagenic call (End Point: AMES SALMONELLA TYPHIMURIUM, Test System: TA100, Metabolic Activation: NONE, Method: STANDARD PLATE): inactive; negative | mutagenic call (End Point: AMES SALMONELLA TYPHIMURIUM, Test System: TA100, Metabolic Activation: RAT, LIVER, S-9, AROCLOR 1254, Method: STANDARD PLATE): inactive; negative | mutagenic call (End Point: AMES SALMONELLA TYPHIMURIUM, Test System: TA1535, Metabolic Activation: NONE, Method: STANDARD PLATE): inactive; negative | mutagenic call (End Point: AMES SALMONELLA TYPHIMURIUM, Test System: TA1535, Metabolic Activation: RAT, LIVER, S-9, AROCLOR 1254, Method: STANDARD PLATE): inactive; negative

CNP1(NC)=NP(NC)(NC)=NP(NC)(NC)=N1
mutagenic call [3]: inactive; negative | mutagenic call [4]: inactive; negative | mutagenic call [5]: inactive; negative | mutagenic call [6]: inactive; negative

O=[Si]=O
mutagenic call [3]: inactive; negative | mutagenic call [4]: inactive; negative | mutagenic call [5]: inactive; negative | mutagenic call [6]: inactive; negative | mutagenic call (Test System: AMES SALMONELLA TYPHIMURIUM, Strain/Indicator: TA1535, Metabolic Activation: NONE, Method: STANDARD PLATE): inactive; negative | mutagenic call (Test System: AMES SALMONELLA TYPHIMURIUM, Strain/Indicator: TA1535, Metabolic Activation: RAT, LIVER, S-9, AROCLOR 1254, Method: STANDARD PLATE): inactive; negative | mutagenic call (Test System: AMES SALMONELLA TYPHIMURIUM, Strain/Indicator: TA1537, Metabolic Activation: NONE, Method: STANDARD PLATE): inactive; negative | mutagenic call (Test System: AMES SALMONELLA TYPHIMURIUM, Strain/Indicator: TA1537, Metabolic Activation: RAT, LIVER, S-9, AROCLOR 1254, Method: STANDARD PLATE): inactive; negative | mutagenic call (Test System: AMES SALMONELLA TYPHIMURIUM, Strain/Indicator: TA1538, Metabolic Activation: NONE, Method: STANDARD PLATE): inactive; negative | mutagenic call (Test System: AMES SALMONELLA TYPHIMURIUM, Strain/Indicator: TA1538, Metabolic Activation: RAT, LIVER, S-9, AROCLOR 1254, Method: STANDARD PLATE): inactive; negative | mutagenic call (Test System: E. COLI, Strain/Indicator: WP2, Metabolic Activation: NONE, Method: STANDARD PLATE): inactive; negative | mutagenic call (Test System: E. COLI, Strain/Indicator: WP2, Metabolic Activation: RAT, LIVER, S-9, AROCLOR 1254, Method: STANDARD PLATE): inactive; negative | mutagenic call (Test System: HUMAN-HAMSTER HYBRID AL CELLS, Strain/Indicator: AL CELLS (HPRT), Metabolic Activation: NONE, Method: PREINCUBATION): active; positive

COCC12OOC1(C)c1ccccc1O2 (stereo not drawn)
mutagenic call [2]: active; positive

ClCCC(Br)CBr (stereo not drawn)
mutagenic call (Test System: AMES SALMONELLA TYPHIMURIUM, Strain/Indicator: TA100, Metabolic Activation: RAT, LIVER, MICROSOMES, PHENOBARBITAL, Method: PREINCUBATION): inactive; negative | mutagenic call (Test System: AMES SALMONELLA TYPHIMURIUM, Strain/Indicator: TA100, Metabolic Activation: RAT, LIVER, MICROSOMES, Method: PREINCUBATION): inactive; negative
